# According to patent publication US10696692B2, “Amido-benzyl sulfone and sulfoxide derivates” (Forma TM, LLC, priority 2012, dated 2020):
# Read-outs that look alike come from different tables or passages of the source.
# Tests used:
# A2780 cells = assay: Assay 2: In-Vitro Cell Proliferation Assay (A2780 cells, SRB readout, 72 hours); type: cell-based; conditions: A2780 cells, 72 hours, SRB, read-out: Cell Proliferation (IC50);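 also: viable cells counted via sulforhodamine B staining, absorbance at 570 nm, after 72 h exposure at 37 °C, DMSO 0.1% as control, media-only background subtracted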
# NAMPT = NAMPT (Homo sapiens (Human), UniProt P43490); assay: Assay 1: Biochemical Inhibition Assay (NAMPT enzymatic reaction, NMN quantified by mass spectrometry); conditions: read-out: Biochemical (IC50);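 also: recombinant His-tagged human NAMPT preincubated with compound 15 min, then reacted 30 min at rt with 1 µM NAM, 100 µM PRPP, 2.5 mM ATP, NMN product read by RapidFire MS, normalized to L-Cystathionine internal standard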
# Chain of NAMPT (P43490 whole entry): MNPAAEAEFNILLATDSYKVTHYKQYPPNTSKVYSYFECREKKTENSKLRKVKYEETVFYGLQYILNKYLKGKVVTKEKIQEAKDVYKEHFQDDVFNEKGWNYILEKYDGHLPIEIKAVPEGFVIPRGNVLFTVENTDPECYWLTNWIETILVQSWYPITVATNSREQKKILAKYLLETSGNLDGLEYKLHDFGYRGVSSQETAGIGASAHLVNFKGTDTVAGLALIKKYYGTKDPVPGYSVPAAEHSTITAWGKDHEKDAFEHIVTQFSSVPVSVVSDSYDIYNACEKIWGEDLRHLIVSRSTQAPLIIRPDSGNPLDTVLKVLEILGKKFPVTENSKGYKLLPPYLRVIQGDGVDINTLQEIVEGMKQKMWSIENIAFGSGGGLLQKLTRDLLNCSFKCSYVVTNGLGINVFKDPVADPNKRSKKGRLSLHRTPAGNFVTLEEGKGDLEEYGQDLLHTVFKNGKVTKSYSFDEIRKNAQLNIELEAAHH
SMILES,"IC50 (A2780 cells; Homo sapiens, A2780, 72 h)",IC50 (NAMPT),IC50 (A2780 cells)
N#CCC1CCN(S(=O)(=O)c2ccc(CNC(=O)c3cc4ccncc4o3)cc2)CC1 [Example 13],33.8 nM,12.6 nM,
"CCCN1CCC(S(=O)(=O)c2ccc(CNC(=O)c3cc4ccncc4o3)cc2)CC1 [Example 342, N-[[4-[(1-propyl-4-piperidyl)sulfonyl]phenyl]methyl]furo[2,3-c]pyridine-2-carboxamide]",23 nM,20.3 nM,
"O=C(NCc1ccc(S(=O)(=O)N2CCN(CCO)CC2)cc1)c1ccc2nccn2c1 [Example 94, Imidazo[1,2-a]pyridine-6-carboxylic acid 4-[4-(2-hydroxy-ethyl)-piperazine-1-sulfonyl]-benzylamide]",29 nM,75.9 nM,
"CN1CCN(S(=O)(=O)c2ccc(CNC(=O)c3ccc4nccn4c3)cc2)CC1 [Example 17, Imidazo[1,2-a]pyridine-6-carboxylic acid 4-(4-methyl-piperazine-1-sulfonyl)-benzylamide]",53.4 nM,101 nM,
"O=C(NCc1ccc(S(=O)(=O)N2CCOC3CNCC32)cc1)c1ccc2nccn2c1 (centres unmarked) [Example 327, N-[[4-(3,4a,5,6,7,7a-hexahydro-2H-pyrrolo[3,4-b][1,4]oxazin-4-ylsulfonyl)phenyl]methyl] imidazo[1,2-a]pyridine-6-carboxamide]",2000 nM,1300 nM,
"O=C(NCc1ccc(S(=O)(=O)N2CC3CNCC(C2)O3)cc1)c1ccc2nccn2c1 [Example 333, N-[[4-(9-oxa-3,7-diazabicyclo[3.3.1]nonan-3-ylsulfonyl)phenyl]methyl] imidazo[1,2-a]pyridine-6-carboxamide]",286 nM,320 nM,
"O=C(NCc1ccc(S(=O)(=O)C2CCN(C3CCOCC3)CC2)cc1)c1ccc2nccn2c1 [Example 69, Imidazo[1,2-a]pyridine-6-carboxylic acid 4-[1-(tetrahydro-pyran-4-yl)-piperidine-4-sulfonyl]-benzylamide]",,13.6 nM,4.7 nM
"CC(=O)N1CCC(S(=O)(=O)c2ccc(CNC(=O)c3cc4ccncc4o3)cc2)CC1 [Example 207, N-[[4-[(1-acetyl-4-piperidyl)sulfonyl]phenyl]methyl]furo[2,3-c]pyridine-2-carboxamide]",25 nM,29.3 nM,
"O=C(NCc1ccc(S(=O)(=O)C2CCN(CC(F)(F)F)CC2)cc1)c1ccc2nccn2c1 [Example 65, Imidazo[1,2-a]pyridine-6-carboxylic acid 4-[1-(2,2,2-trifluoro-ethyl)-piperidine-4-sulfonyl]-benzylamide]",,12.4 nM,2.1 nM
"O=C(NCc1ccc(S(=O)(=O)N2CCN(C3COC3)CC2)cc1)c1cnc2[nH]ncc2c1 [Example 117, 1H-Pyrazolo[3,4-b]pyridine-5-carboxylic acid 4-(4-oxetan-3-yl-piperazine-1-sulfonyl)-benzylamide]",44.5 nM,229 nM,
"C[C@@H]1CN(S(=O)(=O)c2ccc(CNC(=O)c3cc4ccncc4o3)cc2)C[C@H](C)N1 [Example 61, cis-Furo[2,3-c]pyridine-2-carboxylic acid 4-((3R,5S)-3,5-dimethyl-piperazine-1-sulfonyl)-benzylamide]",23.3 nM,21.5 nM,
"O=C(NCc1ccc(S(=O)(=O)N2CC3(CCOC3)C2)cc1)c1ccc2nccn2c1 [Example 220, N-[[4-(6-oxa-2-azaspiro[3.4]octan-2-ylsulfonyl)phenyl]methyl] imidazo[1,2-a]pyridine-6-carboxamide]",16.8 nM,25 nM,
"O=C(NCc1ccc(S(=O)(=O)N2CCN(C3CCCCC3)CC2)cc1)c1ccc2nccn2c1 [Example 40, Imidazo[1,2-a]pyridine-6-carboxylic acid 4-(4-cyclohexyl-piperazine-1-sulfonyl)-benzylamide]",6.9 nM,17.1 nM,
"O=C(NCc1ccc(S(=O)(=O)N2CCC3(CCNC3)C2)cc1)c1ccc2nccn2c1 (centres unmarked) [Example 262, N-[[4-(2,7-diazaspiro[4.4]nonan-2-ylsulfonyl)phenyl]methyl] imidazo[1,2-a]pyridine-6-carboxamide]",106 nM,64.9 nM,
"O=C(NCc1ccc(S(=O)(=O)C2CCCOC2)cc1)c1cc2cnccc2[nH]1 (centres unmarked) [Example 266, N-[(4-tetrahydropyran-3-ylsulfonylphenyl)methyl]-1H-pyrrolo[3,2-c]pyridine-2-carboxamide]",18.5 nM,33.1 nM,
"O=C(NCc1ccc(S(=O)(=O)C2CCN(C3COC3)CC2)cc1)c1ccc2nccn2c1 [Example 248, N-[[4-[[1-(oxetan-3-yl)-4-piperidyl]sulfonyl]phenyl]methyl]imidazo[1,2-a] pyridine-6-carboxamide]",,19.4 nM,5.58 nM
"O=C(NCc1ccc(S(=O)(=O)N2CCC3(CCNC3=O)C2)cc1)c1cnc2[nH]ncc2c1 (centres unmarked) [Example 282, N-[[4-[(1-oxo-2,7-diazaspiro[4.4]nonan-7-yl)sulfonyl)phenyl]methyl]-1H-pyrazolo[3,4-b]pyridine-5-carboxamide]",233 nM,101 nM,

SMILES,"IC50 (A2780 cells; Homo sapiens, A2780, 72 h)",IC50 (NAMPT),IC50 (A2780 cells)
"O=C(NCc1ccc(S(=O)(=O)C2CCN(CC(F)(F)F)CC2)cc1)c1cc2ccncc2o1 [Example 67, Furo[2,3-c]pyridine-2-carboxylic acid 4-[1-(2,2,2-trifluoro-ethyl)-piperidine-4-sulfonyl]-benzylamide]",,13.5 nM,5.4 nM
"CC(=O)N1CCN(S(=O)(=O)c2ccc(CNC(=O)c3ccc4nccn4c3)cc2)CC1 [Example 93, Imidazo[1,2-a]pyridine-6-carboxylic acid 4-(4-acetyl-piperazine-1-sulfonyl)-benzylamide]",13 nM,22.4 nM,
"CCN1CCC([S+]([O-])c2ccc(CNC(=O)c3cc4ccncc4o3)cc2)CC1 (centres unmarked) [Example 380, N-[[4-[(1-ethyl-4-piperidyl)sulfinyl]phenyl]methyl]furo[2,3-c]pyridine-2-carboxamide]",499 nM,68.3 nM,
"O=C(NCc1ccc(S(=O)(=O)N2CCCCC2)cc1)c1cn2[nH]ccc2n1 [Example 1, 5H-Imidazo[1,2-b]pyrazole-2-carboxylic acid 4-(piperidine-1-sulfonyl)-benzylamide]",19100 nM,8100 nM,
"O=C(NCc1ccc(S(=O)(=O)N2CCC(O)CC2)cc1)c1ccc2nccn2c1 [Example 28, Imidazo[1,2-a]pyridine-6-carboxylic acid 4-(4-hydroxy-piperidine-1-sulfonyl)-benzylamide]",27.6 nM,23.5 nM,
"O=C(NCc1ccc(S(=O)(=O)[C@@H]2CCOC2)cc1)c1cnc2nccn2c1 [Example 226, N-[[4-[(3R)-tetrahydrofuran-3-yl)sulfonylphenyl]methyl] imidazo[1,2-a]pyrimidine-6-carboxamide]",457 nM,8.88 nM,
"O=C(NCc1ccc(S(=O)(=O)N2CCC(F)(F)C2)cc1)c1cnc2[nH]ncc2c1 [Example 175, 1H-Pyrazolo[3,4-b]pyridine-5-carboxylic acid 4-(3,3-difluoro-pyrrolidine-1-sulfonyl)-benzylamide]",127 nM,65.2 nM,
"O=C(NCc1ccc(S(=O)(=O)N2CC3CC3C2)cc1)c1ccc2nccn2c1 (centres unmarked) [Example 160, Imidazo[1,2-a]pyridine-6-carboxylic acid 4-(3-aza-bicyclo[3.1.0]hexane-3-sulfonyl)-benzylamide]",15.3 nM,4.7 nM,
"O=C(NCc1ccc(S(=O)(=O)N2CCC2)cc1)c1ccc2nccn2c1 [Example 240, N-[[4-(azetidin-1-ylsulfonyl)phenyl]methyl] imidazo[1,2-a]pyridine-6-carboxamide]",140 nM,41 nM,
"O=C(NCc1ccc(S(=O)(=O)N2CCC(F)(F)C2)cc1)c1ccc2nccn2c1 [Example 99, Imidazo[1,2-a]pyridine-6-carboxylic acid 4-(3,3-difluoro-pyrrolidine-1-sulfonyl)-benzylamide]",7.7 nM,15.8 nM,
"O=C(NCc1ccc(S(=O)(=O)C2CCNCC2)cc1)c1cnc2[nH]ncc2c1 [Example 203, N-[[4-(4-piperidylsulfonyl)phenyl]methyl]-1H-pyrazolo[3,4-b]pyridine-5-carboxamide]",731 nM,669 nM,
"O=C(NCc1ccc(S(=O)(=O)C2CCN(CC(F)(F)F)CC2)cc1)c1cc2ccncc2o1 [Example 212, N-[[4-[[1-(2,2,2-trifluoroethyl)-4-piperidyl]sulfonyl]phenyl]methyl]furo[2,3-c]pyridine-2-carboxamide]",5.35 nM,13.5 nM,
"CN(C)[C@H]1CCN(S(=O)(=O)c2ccc(CNC(=O)c3ccc4nccn4c3)cc2)C1 [Example 108, Imidazo[1,2-a]pyridine-6-carboxylic acid 4-((S)-3-dimethylamino-pyrrolidine-1-sulfonyl)-benzylamide]",5.3 nM,25.6 nM,
"O=C(NCc1ccc(S(=O)(=O)C2CCN(C3COC3)CC2)cc1)c1cc2ccncc2s1 [Example 252, N-[[4-[[1-(oxetan-3-yl)-4-piperidyl]sulfonyl]phenyl]methyl]thieno[2,3-c]pyridine-2-carboxamide]",,4.27 nM,1.48 nM
"O=C(NCc1ccc(S(=O)(=O)N2CCCC23CCNCC3)cc1)c1ccc2nccn2c1 [Example 331, N-[[4-(1,8-diazaspiro[4.5]decan-1-ylsulfonyl)phenyl]methyl] imidazo[1,2-a]pyridine-6-carboxamide]",774 nM,355 nM,
"CC(C)(C)OC(=O)N1CC2OCCN(S(=O)(=O)c3ccc(CNC(=O)c4ccc5nccn5c4)cc3)C2C1 (racemic) [Example 134, cis-4-(4-{([(Imidazo[1,2-a]pyridine-6-carbonyl)-amino]-methyl}-benzenesulfonyl)-hexahydro-pyrrolo[3,4-b][1,4]oxazine-6-carboxylic acid tert-butyl ester]",,166 nM,49.5 nM
"CN1CCC2(C1)CN(S(=O)(=O)c1ccc(CNC(=O)c3ccc4nccn4c3)cc1)C2 [Example 216, N-[[4-[(7-methyl-2,7-diazaspiro[3.4]octan-2-yl)sulfonyl]phenyl]methyl] imidazo[1,2-a]pyridine-6-carboxamide]",13.7 nM,30.4 nM,
